According to ChEMBL document CHEMBL5107956, “Natural products from mangrove sediments-derived microbes: Structural diversity, bioactivities, biosynthesis, and total synthesis” (Eur J Med Chem, 2022):
Converted amounts (≈) assume the structure as drawn.

Legend:
[1] = system: Pseudopestalotiopsis theae; experiment: Antifungal activity Pestalotiopsis theae assessed as fungal growth inhibition per disc measured after 7 days by paper disc dilution method; assay type: functional, organism-based
[2] = system: HepG2; experiment: Cytotoxicity against human HepG2 cells assessed as cell growth inhibition by MTT assay; assay type: functional, cell-based
[3] = system: HEp-2; experiment: Cytotoxicity against human HEp-2 cells assessed as cell growth inhibition by MTT assay; assay type: functional, cell-based
[4] = system: Rhizoctonia solani; experiment: Antifungal activity against Rhizoctonia solani assessed as inhibition of fungal growth at 10 ug/ml relative to control; assay type: functional
[5] = Antioxidant activity assessed as DPPH radical scavenging activity incubated for 30 mins under dark condition; assay type: functional
[6] = Antioxidant activity assessed as free radical scavenging activity by DPPH assay; assay type: functional
[7] = system: HepG2 2.2.15; experiment: Antiproliferative activity against human HepG2.2.15 cells assessed as cell growth inhibition by MTT assay; assay type: functional, cell-based
[8] = biological target: Prostaglandin G/H synthase 2 (Homo sapiens) (UniProt P35354); experiment: Inhibition of COX2 (unknown origin) at 20 nM relative to control
[9] = system: Staphylococcus aureus; experiment: Antibacterial activity against Staphylococcus aureus ATCC 25923 assessed as bacterial growth inhibition; assay type: functional, organism-based
[10] = system: Vibrio splendidus; experiment: Antibacterial activity against Vibrio splendidus as bacterial growth inhibition; assay type: functional, organism-based
[11] = system: Vibrio harveyi; experiment: Antibacterial activity against Vibrio harveyi assessed as cell growth inhibition; assay type: functional
[12] = system: Vibrio anguillarum; experiment: Antibacterial activity against Vibrio anguillarum assessed as cell growth inhibition; assay type: functional
[13] = system: Aeromonas hydrophila; experiment: Antibacterial activity against Aeromonas hydrophila assessed as cell growth inhibition; assay type: functional
[14] = system: JeKo-1; experiment: Cytotoxicity against human JeKo-1 cells assessed as cell growth inhibition by MTT assay; assay type: functional, cell-based

Prostaglandin G/H synthase 2 (Homo sapiens), sequence (P35354 whole entry, looked up): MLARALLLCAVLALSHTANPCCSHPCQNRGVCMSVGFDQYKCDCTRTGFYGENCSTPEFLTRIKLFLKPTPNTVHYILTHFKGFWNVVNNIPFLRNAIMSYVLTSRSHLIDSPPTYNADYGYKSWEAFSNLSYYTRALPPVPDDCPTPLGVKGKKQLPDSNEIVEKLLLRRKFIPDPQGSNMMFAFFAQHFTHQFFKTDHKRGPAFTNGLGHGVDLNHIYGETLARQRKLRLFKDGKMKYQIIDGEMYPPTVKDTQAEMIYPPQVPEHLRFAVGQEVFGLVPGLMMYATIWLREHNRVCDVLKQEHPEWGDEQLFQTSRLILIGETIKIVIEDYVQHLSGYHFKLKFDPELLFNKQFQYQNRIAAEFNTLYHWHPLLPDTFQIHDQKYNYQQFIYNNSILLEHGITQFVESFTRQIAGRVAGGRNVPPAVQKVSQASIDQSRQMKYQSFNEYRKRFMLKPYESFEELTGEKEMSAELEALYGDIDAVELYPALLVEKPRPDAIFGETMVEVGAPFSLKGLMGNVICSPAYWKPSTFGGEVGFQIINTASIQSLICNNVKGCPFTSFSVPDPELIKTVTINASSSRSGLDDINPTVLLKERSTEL

COC(=O)/C=C/C1=CC(=O)CC1O (centres undefined) gave an IC50 [1] of 125 µg.
In the case of COC(=O)c1cc(O)cc2oc3cc(C)c(O)cc3c(=O)c12, the IC50 [2] is reported as 9 µg/mL (≈ 30 µM) and the IC50 [3] is reported as 8 µg/mL (≈ 26.6 µM).
For Cc1oc2cc3cc(O)cc(O)c3c(O)c2c(=O)c1C, the inhibition at 10 µg/mL [4] was 50.2%.
In the case of COc1c(O)c2c(c(O)c1CO)C(=O)OCC2, the IC50 [5] is reported as 25.7 µM.
Work on COc1cc(O)cc(C2OC(=O)c3c(O)cc(C)c(O)c32)c1O (centres undefined) yielded an IC50 [6] of 1.23 µg/mL (≈ 3.86 µM).
Molecule C[C@@H](O)Cc1cc(O)c2c(c1)C(=O)c1c(O)c(O)cc(O)c1C2=O has an IC50 [7] of 4.63 µM.
For CC(C)=CCc1cc(C[C@@]2(C(=O)O)OC(=O)C(OC(C)(C)[C@@H](O)Cc3cc(C[C@@]4(C(=O)O)OC(=O)C(O)=C4c4ccc(O)cc4)ccc3O)=C2c2ccc(O)cc2)ccc1O, the inhibition [8] was 76.5%, the IC50 [9] was 1.3 µM and the IC50 [10] was 3.7 µM.
With C[C@H](O)/C=C1/C(=O)O[C@H]([C@@H](C)O)[C@@H]1O the MIC [11] was 8 µg/mL (≈ 39.6 µM), the MIC [12] was 8 µg/mL (≈ 39.6 µM) and the MIC [13] was 8 µg/mL (≈ 39.6 µM).
In the case of CC1=CCC[C@@]2(C)C=C3OC(=O)C(CO)=C3C[C@H]12, the IC50 [14] is reported as 8.4 µM.
